For series [1], the system named is MC3T3-E1. Briefly: Induction of cells differentiation in mouse MC3T3-E1 cells assessed as increase in osteocalcin production after 14 days by EIA. The series is classed as functional, cell-based.
Series [2] has as its system MC3T3-E1. The series is described as follows: Induction of osteogenesis in mouse MC3T3-E1 cells assessed as cell differentiation at 30 uM after 6 days by alkaline phosphatase activity assay. The series is classed as functional, cell-based.
A short description of series [3]: Cytotoxicity against mouse MC3T3-E1 cells at 30 uM after 6 days. The note with it: mc3t3-e1, 144 h. It is filed as cell-based.
The subject of series [4] is MC3T3-E1. The series is described as follows: Induction of cells differentiation in mouse MC3T3-E1 cells assessed as increase in mineralization after 14 days by Alizarin Red S staining. The series is classed as functional, cell-based.
A further series deals with RAW264. The series is described as follows: Induction of osteoclast differentiation in mouse RAW264 cells assessed as TRAP activity. It is filed as functional, cell-based.
Series [5] concerns MC3T3-E1. The series is described as follows: Induction of osteogenesis in mouse MC3T3-E1 cells assessed as increase in alkaline phosphatase activity after 6 days. It is filed as functional, cell-based.
The species named for another series is Mus musculus. Briefly: Induction of osteogenesis in mouse primary calvarial cells assessed as increase in alkaline phosphatase activity measured by ALP staining after 14 days. It is filed as functional.
Series [6] deals with MC3T3-E1. Briefly: Induction of osteogenesis in mouse MC3T3-E1 cells assessed as increase in alkaline phosphatase activity at 30 uM after 6 days in presence of 50 ng/ml noggin BMP antagonist. The series is classed as functional, cell-based.
The subject of series [7] is MC3T3-E1. Briefly: Induction of osteogenesis in mouse MC3T3-E1 cells assessed as increase in alkaline phosphatase activity at 30 uM after 6 days in presence of 0.1 uM LDN-193289 BMP receptor kinase inhibitor. It is filed as functional, cell-based.
Series [8] concerns MC3T3-E1. Briefly: Induction of osteogenesis in mouse MC3T3-E1 cells assessed as increase in alkaline phosphatase activity at 30 uM after 6 days in presence of 5 uM SB203580 p38 MAPK inhibitor. It is filed as functional, cell-based.

We go through eight compounds from ChEMBL document CHEMBL1777809, “Osteogenic activity of diphenyl ether-type cyclic diarylheptanoids derived from Acer nikoense” (Bioorg Med Chem Lett, 2011).

Calls of active or inactive are those of the source. The calls are words filed in the database; no cut-off is given here.

In the case of `Oc1ccc2cc1Oc1ccc(cc1)CCCC[C@@H](O)CC2`, the outcome in the series with MC3T3-E1 [1] and with MC3T3-E1 [2] was Active. The Activity entry in [3] was “Non-toxic”; in the series with MC3T3-E1 [4], “Dose-dependent effect”. For the same compound, the result in the series on RAW264 was inactive.
For the compound `C[C@H](O)CCc1ccc(O)cc1`, the result in the series with MC3T3-E1 [2] and in the series on RAW264 was inactive. Also, the Activity result in [3] is given as “Non-toxic”.
Consider `Oc1ccc(CCCC[C@@H](O)CCc2ccc(O)cc2)cc1`, for which, in [3], the Activity entry is “Toxic”. For the same compound, in the series with RAW264, the outcome was inactive.
With `Oc1ccc2cc1Oc1ccc(cc1)CC[C@H](O)CCCC2` [ACEROGENIN A], the result in the series on MC3T3-E1 [1], in the series with MC3T3-E1 [2] and in the series listed under Mus musculus was Active. Further, the Activity entry was “Non-toxic” in [3], “Dose-dependent effect” with MC3T3-E1 [5] and “Dose-dependent effect” with MC3T3-E1 [4]. Moreover, the result in the series on MC3T3-E1 [6], in the series on MC3T3-E1 [7], in the series with MC3T3-E1 [8] and in the series with RAW264 was inactive.
For the compound `OC[C@H]1O[C@@H](Oc2ccc3cc2Oc2ccc(cc2)CCCC[C@@H](O)CC3)[C@H](O)[C@@H](O)[C@@H]1O` [ACEROSIDE B1], the result in the series on MC3T3-E1 [1] and in the series with MC3T3-E1 [2] was Active. The Activity result is “Non-toxic” in series [3] and “Dose-dependent effect” in the series on MC3T3-E1 [4]. Further, the outcome in the series on RAW264 was inactive.
With `OC[C@@]1(O)CO[C@@H](OC[C@H]2O[C@@H](O[C@@H]3CCCCc4ccc(O)c(c4)Oc4ccc(cc4)CC3)[C@H](O)[C@@H](O)[C@@H]2O)[C@@H]1O` [ACEROSIDE III], the outcome in the series on MC3T3-E1 [2] was Active. Besides, the Activity result in series [3] is “Non-toxic”. In addition, the result in the series with RAW264 was inactive.
Regarding `OC[C@H]1O[C@H](Oc2ccc3cc2Oc2ccc(cc2)CC[C@@H](O)CCCC3)[C@H](O)[C@@H](O)[C@@H]1O` [ACEROSIDE I], the result in the series with MC3T3-E1 [1] and with MC3T3-E1 [2] was Active. Moreover, the Activity entry was “Non-toxic” in [3] and “Dose-dependent effect” in the series with MC3T3-E1 [4]. In addition, the result in the series on RAW264 was inactive.
For the compound `Oc1cc(O)c2c(c1)O[C@H](c1ccc(O)c(O)c1)[C@@H](O)C2` [CIANIDANOL], in series [3], the Activity result is on record as “Non-toxic”. In the series on RAW264, the result was inactive.
